Assay results taken from patent US10738093B2, “Discovery of cationic nonribosomal peptides as Gram-negative antibiotics through global genome mining” (The Hong Kong University of Science and Technology, priority 2018, dated 2020).
≈ marks a conversion by molar mass, not a printed value. Positions of bridges follow the written chain, without caps; N, C: chain ends. Non-standard residues stand in square brackets, D forms with d. Residues, ends and D or L forms follow the SMILES beside them. ξ: configuration not given here. *: point of attachment. Hexanoyl(4ξ-Me) = CCC(C)CCC(=O)*; dOrn = NCCC[C@@H](N)C(=O)O; Orn = NCCC[C@H](N)C(=O)O

Experiments:
[1] = tested on: K. pneumoniae NRRL-B-3521; type: cell-based, Klebsiella pneumoniae; settings: NRRL-B-3521
Experimental: (§1) Minimum inhibitory concentration (MIC) was determined by broth microdilution according to CLSI guidelines. The test medium for most species was Mueller-Hinton broth (MHB). Bacteria were grown overnight to early stationary phase and adjusted in MHB to 5.0×10^5 colony-forming units per mL (c.f.u./mL) in the wells of 96-well microtiter plates, mixed with varying concentrations of test compounds and incubated at 37° C. for 24 h. […] MHBs containing 10% fetal bovine serum (Gibco), 21 mM MgCl, or 1.0 mg/ml LPS (lipopolysaccharides from Escherichia coli O55:B5, Sigma-Aldrich) were used to test their inhibitory effects.

Acinetobacter baumannii = type: cell-based
Experimental: as §1

[2] = tested on: Klebsiella pneumoniae NRRL-B-408; type: cell-based; settings: NRRL-B-408
Experimental: as §1

[3] = tested on: Pseudomonas aeruginosa PAO1; type: cell-based; settings: PAO1
Experimental: as §1

Bacillus subtilis 168 = type: cell-based; settings: 168
Experimental: as §1

Candida albicans = type: cell-based
Experimental: as §1

[4] = tested on: Enterobacter cloacae NRRL-B-413; type: cell-based; settings: NRRL-B-413
Experimental: as §1

[5] = tested on: Methicillin-resistant Staphylococcus aureus ATCC 43300; type: cell-based
Experimental: as §1

E. coli ATCC 25922 = assay: Neutropenic mouse thigh infection model; type: in vivo, Escherichia coli
Experimental: In vivo activities of brevicidine and laterocidine were tested using the mouse thigh infection model. Animal studies were performed by Pharmacology Discovery Services Taiwan Ltd. (Taipei, Taiwan) in general accordance with standard guidelines on animal welfare in an AAALAC-accredited facility. The protocol was reviewed and approved by the Institutional Animal Care and Use Committee. Groups of five female specific-pathogen-free ICR (CD-1) mice weighing 22±2 g (˜5 weeks of age) were used. Animals were immunosuppressed with two intraperitoneal injections of cyclophosphamide, the first at 150 mg/kg 4 d before infection (day −4) and the second at 100 mg/kg 1 d before infection (day −1). On day 0, animals were inoculated intramuscularly (0.1 ml/thigh) in the right thigh with an E. coli ATCC 25922 suspension. Vehicle (10% DMSO, 1% Tween 80, 0.9% NaCl) and antibiotics were then subcutaneously injected 2 h and 8 h later. Due to limited amount of compounds 1-2, only one concentration of 1(30 mg/kg) or 2 (15 mg/kg) was used in this study. At 26 h after inoculation, animals were euthanized by CO2 asphyxiation before the muscle of the right thigh was harvested from each test animal. The removed muscle was homogenized in 5 mL of PBS, pH 7.4, with a polytron homogenizer. Homogenates in the amount of 0.1 mL were used for serial tenfold dilutions and plated onto a nutrient agar medium for colony count (c.f.u./g) determination.

P. aeruginosa PAO1 = assay: Atomic force microscopy of treated P. aeruginosa; type: cell-based, Pseudomonas aeruginosa
Experimental: The samples were then centrifuged at 8000 g for 10 min at 4° C., and the pellet was washed twice in 100 lpL of apyrogenic water. The bacteria resuspended in 50 μL of apyrogenic water were applied to mica disks and dried overnight at 28° C. before imaging. Atomic force micrographs were recorded on a Veeco Mulitmode AFM with NanoScope III controller operating in contact mode. The data were analyzed with NanoScope Analysis software v.1.40 (Veeco, USA). Scans were acquired at 25° C. at the rates of 1.0 Hz and 256 samples per line resolution. Downstream image processing and analysis were performed using NanoScope software (Bruker). Height images were flattened to compensate for cell curvature, and topographical sections were used to generate two-dimensional reconstructions of surface texture.

[6] = tested on: Escherichia coli ATCC 25922; assay: microbe, parasite or virus in culture; type: cell-based; settings: ATCC 25922
Experimental: as §1

[7] = LPS binding by isothermal titration calorimetry; design: species or system Escherichia coli; settings: ITC
Experimental: Microcalorimetric experiments of peptide binding to LPS were performed on an MCS isothermal titration calorimeter (ITC) (Microcal, Northampton, Mass.) at 37° C. LPS was prepared as a 50 μM aqueous suspension in 20 mM HEPES (pH 7.0) buffer by suspension, sonication and temperature cycling between 5° C. and 70° C. This suspension was stored at 4° C. overnight prior to use. 100 μM peptide solutions (brevicidine and polymyxin B) were prepared in the same buffer and all solutions were degassed prior to use by stirring under vacuum for 5 min at 37° C. After thermal equilibration, 5 μL aliquots of the peptide solution were added every 3 min into the lipid-containing cell at 37° C. and stirred constantly. The change in heat during the titration steps was registered in real time and raw data were processed using the Origin® 7 software provided with the instrument. In control experiments, the corresponding peptide solution (or LPS solution) was injected into the buffer without LPS (or without peptide).

E. coli Top10 [8] = type: cell-based, Escherichia coli; settings: Top10
Experimental: as §1

[9] = tested on: Colistin-resistant E. coli (E. coli ATCC 25922 carrying mcr-1); type: cell-based, Escherichia coli
Experimental: as §1

E. cloacae NRRL-B-425 = type: cell-based, Enterobacter cloacae; settings: NRRL-B-425
Experimental: as §1

E. coli Top10 [10] = assay: Bacterial growth kinetics; type: cell-based, Escherichia coli; settings: E. coli cells exposed to compound
Experimental: A fresh single colony of E. coli Top10 was inoculated into MHB (5 mL) and grown with shaking at 225 rpm overnight. The bacteria were diluted to 1×10^5 c.f.u./mL in fresh MHB, grown […] to early log-phase (OD=0.15) and treated with the antibiotics of interest in the wells of a 96-well plate. Final antibiotic concentrations varied from 1×MIC to 8×MIC. The plate was then incubated at 30° C. overnight, with OD 600 measurements taken every 30 seconds.

SMILES: CCC(C)CCC(=O)N[C@H](CC(N)=O)C(=O)N[C@H](Cc1ccc(O)cc1)C(=O)N[C@H](Cc1c[nH]c2ccccc12)C(=O)N[C@H](CCCN)C(=O)N[C@@H](CCCN)C(=O)NCC(=O)N[C@H](CCCN)C(=O)N[C@@H](Cc1c[nH]c2ccccc12)C(=O)N[C@@H]1C(=O)N[C@@H]([C@@H](C)CC)C(=O)NCC(=O)N[C@H](CO)C(=O)O[C@@H]1C (stereo partly drawn) [Compound 1, 4-Methyl-Hexanoyl-D-Asn-D-Tyr-D-Trp-D-Orn-Orn-Gly-D-Orn-Trp-Thr-Ile-Gly-Ser (cyclized via lactone formation between Thr and the C-terminus)] ({Hexanoyl(4ξ-Me)}-[dN][dY][dW][dOrn][Orn]G[dOrn]WTIG[dS]; ester 9-C)
- MIC [1]: 4 µg/mL (≈ 2.63 µM)
- MIC (Acinetobacter baumannii): 16 µg/mL (≈ 10.5 µM)
- MIC Ab (Acinetobacter baumannii): 16 µg/mL (≈ 10.5 µM)
- MIC [2]: 2 µg/mL (≈ 1.32 µM)
- MIC [3]: 1 µg/mL (≈ 0.658 µM)
- MIC Pa [3]: 1 µg/mL (≈ 0.658 µM)
- MIC (Bacillus subtilis 168): 32 µg/mL (≈ 21.1 µM)
- MIC Bs (Bacillus subtilis 168): 32 µg/mL (≈ 21.1 µM)
- MIC (Candida albicans): >64 µg/mL
- MIC Ca (Candida albicans; Table 2, Candida albicans): ND (ND >64 μg/ml)
- MIC [4]: 2 µg/mL (≈ 1.32 µM)
- MIC En [4]: 2 µg/mL (≈ 1.32 µM)
- MIC ([5]; ATCC 43300): >64 µg/mL
- MIC MRSA ([5]; Table 2, Methicillin-resistant Staphylococcus aureus ATCC 43300): ND (ND >64 μg/ml)
- bactericidal efficacy in mouse thigh infection (viable bacteria) (E. coli ATCC 25922; brevicidine 30 mg/kg or laterocidine 15 mg/kg, 2 times, after 26 h): reduced numbers of viable bacteria
- reduction of c.fu. in thigh compared to the vehicle control (E. coli ATCC 25922; mice, 30 mg/kg subcutaneously, two doses, at 24 h): 5 log10
- cell morphology by AFM (P. aeruginosa PAO1): lost their regular rod-like shape and became lumpy and rugged
- MIC [6]: 2 µg/mL (≈ 1.32 µM)
- MIC Ec [6]: 2 µg/mL (≈ 1.32 µM)
- Kd ([7]; 37° C., read-out: dissociation constant Kd for LPS): 6.5 µM
- binding to LPS ([7]; FIGS. 18a-18b): strong binding to LPS
- MIC (E. coli Top10 [8]): 2 µg/mL (≈ 1.32 µM)
- MIC [9]: 2 µg/mL (≈ 1.32 µM)
- MIC (E. cloacae NRRL-B-425): 2 µg/mL (≈ 1.32 µM)
- time of growth at a reduced rate before steady decrease in cell count (E. coli Top10 [10]): 30 min
